From patent US7838659B2, “Herpesvirus ribozymes and vectors” (priority 2003, dated 2010)

Tests used:
Type in all cases: cell-based
[1] = test system: HSV-1 17syn+ (drug sensitive); experiment: Multi-step replication, comparison with acyclovir, strain 17syn+; settings: MOI 10^−3, 48 hours, rabbit skin cells
Experimental: (§1) Four groups were included when testing the impact of the ribozyme on replication of drug resistant HSV-1 strains: mock infection and Ad-UL20 Rz treatments were performed as before; an adenovirus expressing GFP was used instead of ψ5; and an acyclovir (ACV) treatment (0.1 μM) was included. The dosage of acyclovir was determined by the threshold dose needed to distinguish drug resistance of HSV-1 (Thi, T. N., C. Deback, I. Malet, P. Bonnafous, Z. Ait-Arkoub, and H. Agut. 2006. Rapid determination of antiviral drug susceptibility of herpes simplex virus types 1 and 2 by real-time PCR. Antiviral Res 69:152-7). Forty-eight hours were allowed for HSV-1 infection to develop before cell lysates were harvested for titration. Five HSV-1 strains were tested: 17syn+ and KOS are drug sensitive strains, and PAAr5, tkLTRZ1, and ACG^r4 are drug resistant isolates.
(§2) UL20-Rz154 inhibits viral replication of HSV-1 drug resistant strains. Ad-UL20 Rz154 was compared with acyclovir treatment in a multi-step infection at an MOI of 10^−3. […] In the case of PAAr5 infection, UL20 ribozyme reduced viral production by 99%; against tkLTRZ1 infection, it reduced virus yield by 76%; and against ACGr4 by 70%. Therefore, knocking down the expression of the UL20 gene led to a significant inhibition of HSV-1 viral replication in viral strains that were resistant to a conventional antiviral drug.

[2] = test system: HSV-1 KOS (drug sensitive); experiment: Multi-step replication, comparison with acyclovir, strain KOS; settings: MOI 10^−3, 48 hours, rabbit skin cells
Experimental: as §1, §2

[3] = test system: HSV-1 PAAr5 (drug resistant); experiment: Multi-step replication, comparison with acyclovir, strain PAAr5; settings: strain PAAr5, MOI 10^−3, 48 hours, rabbit skin cells
Experimental: as §1, §2

[4] = test system: HSV-1 tkLTRZ1 (drug resistant); experiment: Multi-step replication, comparison with acyclovir, strain tkLTRZ1; settings: strain tkLTRZ1, MOI 10^−3, 48 hours, rabbit skin cells
Experimental: as §1, §2

[5] = test system: HSV-1 ACGr4 (drug resistant); experiment: Multi-step replication, comparison with acyclovir, strain ACGr4; settings: strain ACGr4, MOI 10^−3, 48 hours, rabbit skin cells
Experimental: as §1, §2

Nc1nc2c(ncn2COCCO)c(=O)[nH]1 [acyclovir]
inhibition of HSV-1 viral production [1]: 99%
inhibition of HSV-1 viral production [2]: 80%
reduction of viral production [3]: no significant difference in HSV yields
reduction of virus yield [4]: no significant difference in HSV yields
reduction of virus yield [5]: no significant difference in HSV yields
